Measured values as given in patent US20260015311A1, “AMINO LIPID COMPOUND, PREPARATION METHOD THEREFOR, AND USE THEREOF” (SHENZHEN SHENXIN BIOTECHNOLOGY CO., LTD., priority 2022, published 2026).

How the values were obtained:
[1] = test system: OVA protein; experiment: In vivo delivery of ovalbumin mRNA and immunity, IgG ELISA; set-up: species or system BALB/c mice; details: OVA mRNA LNP, injected intramuscularly 0.5 mg/kg Day 0 and Day 7, serum Day 21, FIG. 1
Description: (§1) The amino lipid compounds of formula (I) of the present disclosure were mixed with DOPE, cholesterol, and PEG2000-DMG in a molar ratio of 50:10:38.5:1.5 and dissolved in absolute ethanol. Ovalbumin mRNA (OVA mRNA) was dissolved in a sodium acetate solution (50 mM, pH=4.0). By using a microinjection pump, the resultant ethanol solution and the sodium acetate solution (50 mM, pH=4.0) were mixed in a ratio of 1:3 in a microfluidic chip to prepare a crude solution of lipid nanoparticles, which were then dialyzed in 1×PBS at a controlled temperature of 4° C. for 6 h using a dialysis box (Fisher, MWCO 20,000), and filtered through a 0.22 μm microporous filter membrane before use.
The mass ratio of the amino lipid compounds to the ovalbumin mRNA (OVA mRNA) in the obtained lipid nanoparticles was about 10:1.
6-week-old female BALB/c mice weighed about 20 g were selected and fed in a SPF-grade feeding room. Animal tests were conducted strictly according to the guidelines of National Health institutions and the requirements of animal ethics. […]
A flat-bottomed 96-well plate (Nunc) was pre-coated with OVA protein at a concentration of 0.5 μg protein per well in a 50 mM carbonate buffer (pH 9.6) at 4° C., and allowed to stay overnight, and then blocked with 5% glycine. […] After addition of the HRP substrate, the absorbance at 450 nm was measured on an ELISA plate reader (Bio-Rad).

[2] = test system: Fluc mRNA; experiment: Activity of lipid nanoparticles of formulation method 2, Fluc mRNA by intramuscular administration; assay type: in vivo, BALB/c mice
Description: (§2) The formulation method was the same as the formulation method 1, except that the molar ratio of the amino lipid compounds to DSPC, cholesterol and PEG2000-DMG was 50:10:38.5:1.5.
(§3) 9 mice were assigned randomly to each group and injected with the lipid nanoparticles at a dosage of 0.5 mg/kg by three administration routes, i.e., subcutaneous, intramuscular and tail vein injection (three mice for each administration route). After 12 hours, D-luciferin potassium salt (200 μL, 10 mg/mL) was injected into each mouse through the tail vein. After 10 minutes, the total fluorescence intensity of each mouse was observed on a living imaging system (IVIS-200, Xenogen) and taken photographs for record. The expression intensities of Fluc mRNA delivered by representative amino lipid compounds through the three administration routes are shown in Table 2-4. MC3 was used as a control and SM102 was used as a comparative compound.
Preparation of Lipid Nanoparticles: LNPs were Prepared Using the Formulation Method 2 for Intramuscular Administration.
The measurement method was the same as that of Test Example 1.

[3] = test system: Fluc mRNA; experiment: Stability of lipid nanoparticles at 25° C., subcutaneous expression of Fluc mRNA; assay type: in vivo, mice
Description: as §1, with “compounds” for “compounds of formula (I)”, “of 45:10:42.5:2.5” for “of 50:10:38.5:1.5”, “ethanol.” for “ethanol. Ovalbumin mRNA (OVA mRNA) was dissolved in a sodium acetate solution (50 mM, pH=4.0).”, “and a” for “and the”
as §3
(§4) Preparation of Lipid Nanoparticles: The Formulation Method 1 was Used to Prepare LNPs for Subcutaneous Administration.
(§5) The particle size measurements were carried out on the day of preparation (week 0), and after one week (week 1), two weeks (week 2), and four weeks (week 4) of storage at 25° C., and the expression intensities of Fluc mRNA delivered by subcutaneous administration were determined on the day of preparation (week 0) and after four weeks (week 4).

[4] = Stability of lipid nanoparticles at 25° C., DLS particle size and PDI; assay type: physicochemical
Description: as §1, with “compounds” for “compounds of formula (I)”, “of 45:10:42.5:2.5” for “of 50:10:38.5:1.5”, “ethanol.” for “ethanol. Ovalbumin mRNA (OVA mRNA) was dissolved in a sodium acetate solution (50 mM, pH=4.0).”, “and a” for “and the”
as §4
Characterization of lipid nanoparticles: The particle size and PDI of the prepared lipid nanoparticles were measured by Nano-ZSZEN 3600 (Malvern). 40 μL of the LNP solution was taken for particle size measurement with circulation for three times, 30 seconds for each circulation.
as §5

[5] = test system: Fluc mRNA; experiment: In vivo delivery of luciferase mRNA (Fluc mRNA) by lipid nanoparticles, living imaging; set-up: species or system BALB/c mice; details: after 12 hours, total fluorescence
Description: as §1, with “compounds” for “compounds of formula (I)”, “of 45:10:42.5:2.5” for “of 50:10:38.5:1.5”, “ethanol.” for “ethanol. Ovalbumin mRNA (OVA mRNA) was dissolved in a sodium acetate solution (50 mM, pH=4.0).”, “and a” for “and the”
as §2
The lipid nanoparticles prepared according to the above formulation method 1 or 2 were used in the biological experiments below for evaluating the performances of in vivo delivery of luciferase mRNA (Fluc mRNA). For the lipid nanoparticles obtained in the formulation method 1, the mass ratio of the amino lipid compounds to the luciferase mRNA was about 10:1, and the lipid nanoparticles were administered subcutaneously; and the lipid nanoparticles obtained in the formulation method 2 were administered by tail vein and intramuscular injection.
6-week-old female BALB/c mice weighed about 20 g were selected and fed in a SPF-grade feeding room. Animal tests were conducted strictly according to the guidelines of National Health institutions and the requirements of animal ethics.
as §3

[6] = test system: influenza mRNA vaccine; experiment: In vivo delivery of influenza mRNA vaccine and immunity, IgG ELISA; set-up: species or system BALB/c mice; details: influenza mRNA LNP, injected subcutaneously 0.5 mg/kg Day 0 and Day 7, serum Day 21, FIG. 2
[7] = test system: liver; experiment: Targeting assay, fluorescence in liver after intramuscular injection; assay type: in vivo, mice; details: 15 μg mRNA per animal, 6 h after injection, dissected liver
Description: The lipids were mixed with DSPC, CHO-HP, M-DMG2000 (i.e. PEG2000-DMG) in a molar ratio of 50:10:38.5:1.5 and dissolved in absolute ethanol. mRNA was dissolved in a sodium acetate solution (0.2M, pH=5.0). The samples of various prescriptions were prepared at a water phase:alcohol phase=9 ml/min: 3 ml/min by using a microfluidic equipment (MPE-L2) and a chip (SN.000035). The two phases were mixed by injecting them into the microfluidic chip according to the interface requirements, and then the drug solution was loaded into a 100KD dialysis bags, immersed in a beaker containing 1 L dialysis solution and wrapped with aluminum foil, and dialyzed at 100 rpm for 1 h at room temperature, and then the dialysis solution was replaced and the dialysis continued for 1 h.
Formulation of dialysis solution: 1×PBS+8% sucrose solution: 2 packets of 1×PBS powder were taken into a beaker, dissolved with 2 L DEPC water, added with 160 g of sucrose additionally, and mixed to obtain the 1×PBS+8% sucrose solution.
The mass ratio of mRNA:Lipids in the obtained lipid nanoparticles were about 1:10.
Fluorescent protein-encoding mRNA-LNP preparations containing Compound (I-6-II), MC3 or SM102, respectively were prepared by using the formulation method of mRNA lipid nanoparticle (LNP) preparations as described above, selecting a fluorescent protein-encoding mRNA as the mRNA and the compound (I-6-II), MC3 or SM102, respectively as the lipid.
Each preparation to be tested was administered to mice by intramuscular injection, with each animal receiving 15 μg mRNA preparation sample. 6 h after sample injection, the mice were anesthetized by isoflurane inhalation, and injected intraperitoneally with 200 μL of D-Luciferin (concentration 10 mg/ml) luciferase development substrate. […] After development of living imaging of the intramuscularly injected animals, they were immediately dissected, followed by observation of the fluorescence in the liver immediately after the dissection.

[8] = intramuscular injection, formulation method 2, 0.5 mg/kg
[9] = subcutaneous administration, formulation method 1, 0.5 mg/kg
[10] = tail vein administration, formulation method 2, 0.5 mg/kg

Question: With CCCCCCCCCCCOC(=O)CCCCCN(CCCCCCCC(=O)OC(CCCCCCCC)CCCCCCCC)C1CCCC(O)C1 (stereo not drawn) [Compound 7] as the compound, how does the IgG antibody titers [1] read?
Answer: stronger immune response

Question: What about the “Fluorescence intensity (expression intensity of Fluc mRNA)” value [2] of the same compound?
Answer: 3.7E + 07

Question: What about the “Fluc expression change after four weeks” value ([3]; 25° C., week 4 versus week 0) of the same compound?
Answer: did not decrease significantly

Question: And the “Fluc Expression intensities” value ([3]; week 0, subcutaneous administration)?
Answer: 2.9E+08

Question: And the “Fluc Expression intensities” value ([3]; week 4, storage at 25° C., subcutaneous administration)?
Answer: 2.6E+08

Question: What about the “particle size change after four weeks of storage” value ([4]; 25° C., week 4 versus week 0) of the same compound?
Answer: did not increase significantly

Question: And the particle size ([4]; preparation day (week 0))?
Answer: about 100 nm

Question: And the Z-Average ([4]; week 0 (day of preparation))?
Answer: 95 nm·days

Question: And the PDI ([4]; week 1, storage at 25° C.)?
Answer: 0.05

Question: What about the Z-Average ([4]; week 1, storage at 25° C.) of the same compound?
Answer: 105 nm·days

Question: And the PDI ([4]; week 2, storage at 25° C.)?
Answer: 0.06

Question: And the Z-Average ([4]; week 2, storage at 25° C.)?
Answer: 115 nm·days

Question: And the Z-Average ([4]; week 4, storage at 25° C.)?
Answer: 120 nm·days

Question: What about the “Fluorescence intensity (expression intensity of Fluc mRNA)” value [5, 8] of the same compound?
Answer: 3.7E + 07

Question: And the “Fluorescence intensity (expression intensity of Fluc mRNA)” value [5, 9]?
Answer: 2.9E + 08

Question: What about the “Fluorescence intensity (expression intensity of Fluc mRNA)” value [5, 10] of the same compound?
Answer: 2.9E + 07

Question: Which IgG antibody titers [1] does the source give for CCCCCCCCCCCOC(=O)CCCCCN(CCCCCCCC(=O)OC(CCCCCCCC)CCCCCCCC)C1CC(O)C1 (stereo not drawn) [Compound 2] here?
Answer: comparable to those of MC3 and SM102

Question: What about the “Fluorescence intensity (expression intensity of Fluc mRNA)” value [5, 8] of the same compound?
Answer: 1.3E + 07

Question: What about the “Fluorescence intensity (expression intensity of Fluc mRNA)” value [5, 9] of the same compound?
Answer: 1.9E + 08

Question: And the “Fluorescence intensity (expression intensity of Fluc mRNA)” value [5, 10]?
Answer: 2.9E + 06

Question: What does the source list for CCCCC/C=C\C/C=C\CCCCCCCCC(CCCCCCCC/C=C\C/C=C\CCCCC)OC(=O)CCCN(C)C [MC3, reference compound]?
Answer: IgG antibody titers [6]: lowest IgG antibody titers; Fluorescence intensity (expression intensity of Fluc mRNA) [5, 8]: 2.7E + 07; Fluorescence intensity (expression intensity of Fluc mRNA) [5, 9]: 3.7E + 06; Fluorescence intensity (expression intensity of Fluc mRNA) [5, 10]: 2.7E + 07; fluorescence intensity in liver [7]: 1.23E+05

Question: Which IgG antibody titers [6] does the source give for CCCCCCCC/C=C\CCCCCCCC(=O)OCCCCCCCCN(CCCCCCOC(=O)C(CCCCCC)CCCCCCCC)C1CCCC(O)C1 (stereo not drawn) [Compound 10] here?
Answer: comparable to those of SM102

Question: What about the “Fluorescence intensity (expression intensity of Fluc mRNA)” value [5, 9] of the same compound?
Answer: 1.1E + 07
